Source: patent publication US20110040088A1, “FUSED HETEROCYCLIC COMPOUNDS” (priority 2003, published 2011)
Where two headings read alike, the source gives them in different places.

Experiments:
5-HT2A receptor = 5-HT2A receptor (UniProt P28223); test: 5-HT2A receptor radioligand binding ([3H]ketanserin); conditions: read-out: Ki 5-HT2A, table does not say whether rat cortex or human recombinant (NIH3T3) receptor;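 further: competitive displacement binding on membranes, either from rat cerebral cortex or from NIH3T3 cells stably expressing human 5-HT2A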
Procedure: The affinity of the compounds for the rat 5-HT2A receptor was evaluated by competitive radioligand binding assay using [^3H]ketanserine as the radioligand. The assay was performed on membranes from rat cortex as previously described (Schotte, A. et al., Psychopharmacology (1996) 124: 57-73). Briefly, brain tissue (rat cortex) was homogenized in 20 volumes per wet weight tissue of Tris-HCl buffer (50 mM, pH 7.4). The total membrane fraction was collected by centrifugation and washed by subsequent centrifugation runs (25 min at 25,000 g at 4° C.). Membranes were re-suspended in Tris-HCl buffer (50 mM, pH 7.4) containing 1 nM [^3H]ketanserin. Non-specific binding was estimated in the presence of 10 μM risperidone.

rat 5-HT7a receptor [1] = target: T1, rat 5-HT7a receptor (Rattus norvegicus, UniProt P32305); test: 5-HT7 receptor radioligand binding ([3H]5-CT, membranes of transfected HEK-293 cells); conditions: rat 5-HT7a in HEK-293 membranes, 1 nM [3H]5-CT
T1 construct: expressed in transfected cells
T1 sequence (P32305 whole entry): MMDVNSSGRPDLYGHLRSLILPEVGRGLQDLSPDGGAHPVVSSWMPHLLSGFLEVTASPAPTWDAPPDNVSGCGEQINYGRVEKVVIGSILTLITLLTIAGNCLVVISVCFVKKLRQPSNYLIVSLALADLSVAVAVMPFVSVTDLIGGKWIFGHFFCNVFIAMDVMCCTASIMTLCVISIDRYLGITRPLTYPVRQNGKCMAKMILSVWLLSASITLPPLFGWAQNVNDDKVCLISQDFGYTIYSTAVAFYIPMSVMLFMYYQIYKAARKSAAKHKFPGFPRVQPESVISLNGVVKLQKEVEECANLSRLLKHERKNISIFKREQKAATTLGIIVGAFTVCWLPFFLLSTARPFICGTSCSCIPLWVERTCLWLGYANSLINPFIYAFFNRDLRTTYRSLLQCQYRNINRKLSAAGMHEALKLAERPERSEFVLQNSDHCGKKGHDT

[2] = target: human recombinant 5-HT2B receptor (Homo sapiens, UniProt P41595); test: 5-HT2B receptor radioligand binding ([3H]mesulergine, CHO membranes);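 further: competitive displacement binding on membranes of CHO cells stably expressing the receptor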
Chain of human recombinant 5-HT2B receptor (P41595 whole entry): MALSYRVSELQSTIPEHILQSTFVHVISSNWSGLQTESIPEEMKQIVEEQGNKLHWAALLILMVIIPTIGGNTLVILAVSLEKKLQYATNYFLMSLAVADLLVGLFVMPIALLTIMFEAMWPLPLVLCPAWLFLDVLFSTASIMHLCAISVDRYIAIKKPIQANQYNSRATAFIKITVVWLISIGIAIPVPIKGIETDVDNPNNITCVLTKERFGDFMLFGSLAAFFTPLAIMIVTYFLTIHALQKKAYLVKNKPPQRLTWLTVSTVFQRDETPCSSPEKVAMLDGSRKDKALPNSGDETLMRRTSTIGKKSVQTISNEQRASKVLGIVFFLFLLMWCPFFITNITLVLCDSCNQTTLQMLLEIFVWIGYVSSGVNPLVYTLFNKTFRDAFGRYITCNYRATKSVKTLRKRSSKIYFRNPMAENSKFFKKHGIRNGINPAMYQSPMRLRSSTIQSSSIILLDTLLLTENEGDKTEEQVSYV
Procedure: (§1) Affinity for 5HT2 Receptor Binding Sites
(§2) Receptor binding was performed using the human recombinant 5-HT2A (GB: X57830), 5-HT2B (GB: Z36748) and 5-HT2c (GB: M81778) receptors. The affinity of the compounds for the 3 different human 5-HT2 receptor subtypes was evaluated by competitive radioligand binding assays using [^3H]ketanserin (h5-HT2A) or [^3H]mesulergine (h5-HT2B and h5-HT2c). The assays were performed on membranes prepared from NIH3T3 stably transfected with h5-HT2A or CHO stably transfected with h5-HT2B and h5-HT2C.

[3] = target: T2, human recombinant 5-HT2C receptor (Homo sapiens, UniProt P28335); test: 5-HT2C receptor radioligand binding ([3H]mesulergine, CHO membranes);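 further: competitive displacement of the tritiated ligand, using membranes from CHO cells stably transfected with the human receptor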
T2 sequence (P28335 33-458): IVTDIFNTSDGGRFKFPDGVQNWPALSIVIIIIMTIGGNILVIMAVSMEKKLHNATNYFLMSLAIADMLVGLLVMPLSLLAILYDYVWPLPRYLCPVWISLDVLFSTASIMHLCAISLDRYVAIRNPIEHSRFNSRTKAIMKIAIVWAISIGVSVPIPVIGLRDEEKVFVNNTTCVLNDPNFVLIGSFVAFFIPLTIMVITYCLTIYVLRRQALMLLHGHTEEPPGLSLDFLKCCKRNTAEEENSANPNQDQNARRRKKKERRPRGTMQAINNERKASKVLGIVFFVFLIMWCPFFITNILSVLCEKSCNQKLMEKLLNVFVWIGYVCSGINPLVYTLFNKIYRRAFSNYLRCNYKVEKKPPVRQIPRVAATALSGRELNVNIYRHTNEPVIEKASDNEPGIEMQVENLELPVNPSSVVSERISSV
Procedure: as §1, §2

rat 5-HT7a receptor [4] = target: T1, rat 5-HT7a receptor; test: Adenylyl cyclase assay (5-CT-stimulated cAMP) in r5-HT7a/HEK-293 cells; format: cell-based
Procedure: 2. Effect on Adenylyl Cyclase Activity
In vitro functional properties of the compounds described in this invention were evaluated in an adenylyl cyclase assay. HEK-293 cells stably tranfected with the rat 5-HT7a receptor were plated into 96-well plates. Cells were washed with 200 μL DNEM/F12 and incubated for 10 min with 80 μL of 2 mM 3-isobutyl-1-methylxanthine. Compounds (10 μL) were added for another 10 min. Subsequently, 5-CT (10 μL) was added. After 20 min the incubation was stopped by the addition of 20 μL of 0.5 N HCl. Plates were incubated at 4° C. for 30 min. Twenty μL of the supernatant were assayed for cAMP content with a commercially available kit (Perkin Elmer) using ^125I-cAMP. Sigmoidal curves of best fit were calculated by nonlinear regression analysis using GrapPad Prism.
5-CT-stimulated adenylyl cyclase activity in r5-HT7a/HEK-293 cells was inhibited by Example 59 with an estimated pKB˜8 in good agreement with the Ki value determined from [^3H]5-CT binding studies.

[5] = read-out: Ki 5-HT2C, h5-HT2C in CHO membranes, [3H]mesulergine
[6] = read-out: Ki 5-HT2B, h5-HT2B in CHO membranes, [3H]mesulergine

SMILES | Ki (5-HT2A receptor) [nM] | Ki (rat 5-HT7a receptor [1]) [nM] | Ki [2] [nM] | Ki [3] [nM] | Kb (rat 5-HT7a receptor [4]; r5-HT7a/HEK-293 cells, estimated) [nM] | Kb (rat 5-HT7a receptor [4]; printed in the Ki 5-HT7 column of Table 1, read-out: pKb 5-HT7 (converted)) [nM] | Ki [3, 5] [nM] | Ki [2, 6] [nM]
Clc1ccc(-c2nn(Cc3ccccc3)c3c2CCNCC3)cc1 [Example 59, 1-Benzyl-3-(4-chloro-phenyl)-1,4,5,6,7,8-hexahydro-1,2,6-triaza-azulene] | 280 | 6 | 160 | 74 | ~10 | – | – | –
CN1CCc2c(c(-c3ccc(Cl)cc3)cn2Cc2ccccc2)C1 [Example 38, 1-Benzyl-3-(4-chloro-phenyl)-5-methyl-4,5,6,7-tetrahydro-1H-pyrrolo[3,2-c]pyridine] | – | – | – | – | – | 15.8 | – | –
Cc1ccc(-c2c3c(nn2C2CCCC2)CCNCC3)cc1 [Example 217, 2-Cyclopentyl-3-p-tolyl-2,4,5,6,7,8-hexahydro-1,2,6-triaza-azulene] | 1 | 25 | 0.65 | 10 | – | – | – | –
CC(C)(C)n1nc2c(c1-c1ccc(F)cc1)CCNCC2 [Example 216, 2-tert-Butyl-3-(4-fluoro-phenyl)-2,4,5,6,7,8-hexahydro-1,2,6-triaza-azulene] | 6 | 70 | 20 | 17 | – | – | – | –
Cc1ccc(-c2c3c(nn2C(C)C)CCNCC3)cc1 [Example 209, 2-Isopropyl-3-p-tolyl-2,4,5,6,7,8-hexahydro-1,2,6-triaza-azulene] | 1.1 | 6 | 1.4 | – | – | – | 12 | –
Cc1ccc(-c2c3c(nn2C(C)C)CC(C)NCC3)cc1 (centres unmarked) [Example 315, 2-Isopropyl-7-methyl-3-p-tolyl-2,4,5,6,7,8-hexahydro-1,2,6-triaza-azulene] | 9 | 12 | 3 | 300 | – | – | – | –
CCC(CC)n1nc2c(c1-c1cccc(F)c1)CCNCC2 [Example 183, 2-(1-Ethyl-propyl)-3-(3-fluoro-phenyl)-2,4,5,6,7,8-hexahydro-1,2,6-triaza-azulene] | 7 | 240 | 54 | 70 | – | – | – | –
c1ccc(Cn2nc3c(c2-c2ccccc2)CCNCC3)cc1 [Example 133, 2-Benzyl-3-phenyl-2,4,5,6,7,8-hexahydro-1,2,6-triaza-azulene] | 2.3 | 125 | 3.5 | 10 | – | – | – | –
CC(C)n1nc2c(c1-c1ccc(Cl)cc1)CCNCC2 [Example 211, 3-(4-Chloro-phenyl)-2-isopropyl-2,4,5,6,7,8-hexahydro-1,2,6-triaza-azulene] | 5 | 8.5 | 0.5 | – | – | – | 18 | –
c1ccc(-c2c3c(nn2C2CCCCC2)CCNCC3)cc1 [Example 177, 2-Cyclohexyl-3-phenyl-2,4,5,6,7,8-hexahydro-1,2,6-triaza-azulene] | 7 | 80 | 7 | 110 | – | – | – | –
CC(C)n1nc2c(c1-c1ccc(F)cc1)CCNCC2 [Example 190, 3-(4-Fluoro-phenyl)-2-isopropyl-2,4,5,6,7,8-hexahydro-1,2,6-triaza-azulene] | 10 | 16 | 22 | 51 | – | – | – | –
COc1ccc(-c2c3c(nn2C2CCCC2)CCNCC3)cc1 [Example 220, 2-Cyclopentyl-3-(4-methoxy-phenyl)-2,4,5,6,7,8-hexahydro-1,2,6-triaza-azulene] | 1.3 | 55 | 0.55 | 6.8 | – | – | – | –
CCC(C)n1nc2c(c1-c1ccc(F)cc1)CCNCC2 (centres unmarked) [Example 299, 2-sec-Butyl-3-(4-fluoro-phenyl)-2,4,5,6,7,8-hexahydro-1,2,6-triaza-azulene] | 1.7 | 35 | 9 | 26 | – | – | – | –
N#Cc1ccc(-c2c3c(nn2C2CCC2)CCNCC3)cc1 [Example 280, 4-(2-Cyclobutyl-2,4,5,6,7,8-hexahydro-1,2,6-triaza-azulen-3-yl)-benzonitrile] | 1.5 | 3300 | 6 | 120 | – | – | – | –
Fc1ccc(-c2c3c(nn2C2CC2)CCNCC3)cc1 [Example 282, 2-Cyclopropyl-3-(4-fluoro-phenyl)-2,4,5,6,7,8-hexahydro-1,2,6-triaza-azulene] | 6 | 100 | – | – | – | – | 200 | 20
Clc1ccc(-c2c3c(nn2C2CCC2)CCNCC3)cc1 [Example 238, 3-(4-Chloro-phenyl)-2-cyclobutyl-2,4,5,6,7,8-hexahydro-1,2,6-triaza-azulene] | 1 | 40 | 0.5 | 13 | – | – | – | –
Fc1ccc(-c2nn(Cc3ccccc3)c3c2CCNCC3)cc1 [Example 47, 1-Benzyl-3-(4-fluoro-phenyl)-1,4,5,6,7,8-hexahydro-1,2,6-triaza-azulene] | 9 | 7 | 64 | 24 | – | – | – | –
CC(C)n1nc2c(c1-c1ccc(C#N)cc1)CCNCC2 [Example 212, 4-(2-Isopropyl-2,4,5,6,7,8-hexahydro-1,2,6-triaza-azulen-3-yl)-benzonitrile] | 25 | 93 | – | 425 | – | – | – | 12
Fc1cccc(Cn2nc(-c3ccc(Cl)cc3)c3c2CCNCC3)c1 [Example 76, 3-(4-Chloro-phenyl)-1-(3-fluoro-benzyl)-1,4,5,6,7,8-hexahydro-1,2,6-triaza-azulene] | 210 | 8 | 350 | 690 | – | – | – | –
CCc1ccc(-c2c3c(nn2C(C)C)CCNCC3)cc1 [Example 210, 3-(4-Ethyl-phenyl)-2-isopropyl-2,4,5,6,7,8-hexahydro-1,2,6-triaza-azulene] | 2 | 7 | 0.75 | 20 | – | – | – | –
Oc1ccc(Cn2nc(-c3ccc(Cl)cc3)c3c2CCNCC3)cc1F [Example 160, 4-[3-(4-Chloro-phenyl)-5,6,7,8-tetrahydro-4H-1,2,6-triaza-azulen-1-ylmethyl]-2-fluoro-phenol] | 300 | 7 | 350 | 3500 | – | – | – | –
c1csc(-c2c3c(nn2C2CCCC2)CCNCC3)c1 [Example 233, 2-Cyclopentyl-3-thiophen-2-yl-2,4,5,6,7,8-hexahydro-1,2,6-triaza-azulene] | 4 | 15 | 25 | 16 | – | – | – | –
c1ccc(Cn2nc(-c3cccs3)c3c2CCNCC3)cc1 [Example 104, 1-Benzyl-3-thiophen-2-yl-1,4,5,6,7,8-hexahydro-1,2,6-triaza-azulene] | 80 | 9 | 52 | 360 | – | – | – | –
CC1Cc2c(nn(C3CCCC3)c2-c2ccc(F)cc2)CCN1 (centres unmarked) [Example 309, 2-Cyclopentyl-3-(4-fluoro-phenyl)-5-methyl-2,4,5,6,7,8-hexahydro-1,2,6-triaza-azulene] | 30 | 130 | 15 | 130 | – | – | – | –
CN1CCc2c(-c3ccc(Cl)cc3)nn(Cc3ccccc3)c2CC1 [Example 165, 1-Benzyl-3-(4-chloro-phenyl)-6-methyl-1,4,5,6,7,8-hexahydro-1,2,6-triaza-azulene] | 100 | 4 | 310 | 180 | – | – | – | –
CC1Cc2nn(C(C)C)c(-c3ccc(F)cc3)c2CCN1 (centres unmarked) [Example 313, 3-(4-Fluoro-phenyl)-2-isopropyl-7-methyl-2,4,5,6,7,8-hexahydro-1,2,6-triaza-azulene] | 100 | 30 | 40 | 1000 | – | – | – | –
CC(C)Cn1nc2c(c1-c1ccc(Cl)cc1)CCNCC2 [Example 131, 3-(4-Chloro-phenyl)-2-isobutyl-2,4,5,6,7,8-hexahydro-1,2,6-triaza-azulene] | 7 | 120 | 4.2 | 50 | – | – | – | –
CCN1CCc2c(-c3ccc(Cl)cc3)nn(Cc3ccccc3)c2CC1 [Example 166, 1-Benzyl-3-(4-chloro-phenyl)-6-ethyl-1,4,5,6,7,8-hexahydro-1,2,6-triaza-azulene] | 80 | 8 | 560 | 590 | – | – | – | –
